Results on 26 molecules are retold here after ChEMBL document CHEMBL1127354, “Nonpeptidic inhibitors of human leukocyte elastase. 3. Design, synthesis, X-ray crystallographic analysis, and structure-activity relationships for a series of orally active 3-amino-6-phenylpyridin-2-one trifluoromethyl ketones” (J Med Chem, 1994).

Usually logP stands for the decadic logarithm of the partition coefficient of the neutral form, usually between octanol and water. A lower logP goes with lower lipophilicity. One may read the bioavailability as the share of a dose that reaches the circulation, judged against a reference dose that is usually intravenous. Low values mean poor availability, high ones good availability. Broadly, the half-life is the time needed for the level to fall by half in the phase considered. Read a low half-life as fast loss. As usually defined, the Cmax is the peak of the concentration-time curve. As a reminder, the Tmax is the time at which the peak concentration occurs.

A short description of data set [1]: physchem. As to conditions: octanol/water.
Data set [2] can be described thus: Oral bioavailability was measured at concentration of 25 mg/kg oral dose. The class given is ADME, organism-based. As to conditions: eutheria, in vivo.
Data set [3] is described as follows: Time taken to reach half of the concentration in blood plasma of anesthetized rat at 25 mg/kg oral dose. The class given is ADME, organism-based. The arrangement: dose 25 mg/kg, route oral.
Data set [4] is described as follows: Maximum concentration of unchanged drug in plasma recorded in the period 0-6 hr of postdose in anesthetized rat at 25 mg/kg oral dose. The arrangement: dose 25 mg/kg, route oral. The class given is ADME, organism-based.
The nature of data set [5]: Time taken to reach maximum drug concentration in plasma of anesthetized rat at 25 mg/kg oral dose. It is filed as ADME, organism-based. The arrangement: dose 25 mg/kg, route oral.
The nature of data set [6]: Partition coefficient (logP). The class given is physicochemical. As to conditions: octanol/water.
Data set [7] is described as follows: Maximum concentration of unchanged drug in plasma recorded in the period 0-6 hr of postdose in hamster at 40 mg/kg oral dose. It is filed as ADME, organism-based. The arrangement: dose 40 mg/kg, route oral. As to conditions: cricetinae.
The nature of data set [8]: Oral bioavailability was measured at concentration of 40 mg/kg oral dose to hamster. The class given is ADME, organism-based, Cricetulus griseus. As to conditions: chinese hamster, in vivo.
Data set [9] is described as follows: Time taken to reach maximum drug concentration in plasma of hamster at 40 mg/kg oral dose. It is filed as ADME, organism-based. The arrangement: dose 40 mg/kg, route oral. As to conditions: cricetinae.
Data set [10] in a line: Time taken to reach half of the concentration in blood plasma of hamster at 40 mg/kg oral dose. It is filed as ADME, organism-based. Details: dose 40 mg/kg, route oral. As to conditions: cricetinae.
Data set [11] is described as follows: Maximum concentration of unchanged drug in plasma recorded in the period 0-6 hr of postdose to hamster at 40 mg/kg oral dose. The class given is ADME, organism-based. Details: dose 40 mg/kg, route oral. As to conditions: cricetinae.
Data set [12] is described as follows: Time taken to reach maximum drug concentration in plasma of dog at 5 mg/kg oral dose. It is filed as ADME, organism-based, Canis lupus familiaris. Details: dose 5 mg/kg, route oral.
Data set [13] is described as follows: Maximum concentration of unchanged drug in plasma recorded in the period 0-6 hr of postdose in dog at 5 mg/kg oral dose. It is filed as ADME, organism-based, Canis lupus familiaris. The arrangement: dose 5 mg/kg, route oral.
The nature of data set [14]: Time taken to reach half of the concentration in blood plasma of dog at 5 mg/kg oral dose. It is filed as ADME, organism-based, Canis lupus familiaris. The arrangement: dose 5 mg/kg, route oral.
Data set [15] in a line: Oral bioavailability was measured at concentration of 5 mg/kg oral dose in dog. It is filed as ADME, organism-based, Canis lupus familiaris. As to conditions: in vivo.
A short description of data set [16]: Oral bioavailability was measured at concentration of 40 mg/kg oral dose. As to conditions: eutheria, in vivo. The class given is ADME, organism-based.
The nature of data set [17]: Time taken to reach maximum drug concentration in plasma of anesthetized rat at 60 mg/kg oral dose. The class given is ADME, organism-based. Details: dose 60 mg/kg, route oral.
Data set [18] in a line: Oral bioavailability was measured at concentration of 60 mg/kg oral dose. It is filed as ADME, organism-based. As to conditions: eutheria, in vivo.
Data set [19] in a line: Maximum concentration of unchanged drug in plasma recorded in the period 0-6 hr of postdose in anesthetized rat at 60 mg/kg oral dose. Details: dose 60 mg/kg, route oral. The class given is ADME, organism-based.

As for `CC(C)C(NC(=O)Cn1c(-c2ccccc2)ccc(NC(=O)NCc2cccnc2)c1=O)C(=O)C(F)(F)F` (centres undefined), the log partition coefficient (logP) in [1] is 2.84.

Regarding `CC(C)C(NC(=O)Cn1c(-c2ccccc2)ccc(NC(=O)OCc2ccc(C(=O)O)cc2)c1=O)C(=O)C(F)(F)F` (centres undefined), the logP in data set [1] is 0.84.

`CC(C)C(NC(=O)Cn1c(-c2ccccc2)ccc(NC(=O)NCc2ccccn2)c1=O)C(=O)C(F)(F)F` (centres undefined) showed a lipophilicity (logP) in [1] of 2.15.

On to `CCNc1ccc(-c2ccccc2)n(CC(=O)NC(C(=O)C(F)(F)F)C(C)C)c1=O` (centres undefined), for which the logP in data set [1] came out at 2.37.

`CC(C)C(NC(=O)Cn1c(-c2ccccc2)ccc(NC(=O)Cc2ccc(C(=O)O)cc2)c1=O)C(=O)C(F)(F)F` (centres undefined) showed a logP in [1] of 0.35.

Take `CC(C)C(NC(=O)Cn1c(-c2ccccc2)ccc(NS(=O)(=O)c2ccccc2)c1=O)C(=O)C(F)(F)F` (centres undefined): in [1], the logP is 2.53.

Consider `CC(C)C(NC(=O)Cn1c(-c2ccccc2)ccc(NC(=O)OCc2ccccc2)c1=O)C(=O)C(F)(F)F` (centres undefined), for which the bioavailability in [2] turned out to be 59%. The molecule further showed a half-life in data set [3] of 3 h. For the same molecule, the Cmax in data set [4] is 1.89 µg/mL. Further, the Tmax in data set [5] was 1.4 h.

The molecule `COc1ccc(S(=O)(=O)Nc2ccc(-c3ccccc3)n(CC(=O)NC(C(=O)C(F)(F)F)C(C)C)c2=O)cc1` (centres undefined) showed a log partition coefficient (logP) in data set [1] of 2.5.

In turn, `CC(C)C(NC(=O)Cn1c(-c2ccccc2)ccc(NC(=O)Cc2ccccc2C(=O)O)c1=O)C(=O)C(F)(F)F` (centres undefined) displayed a logP in data set [1] of 1.14.

Regarding `CC(=O)Nc1ccc(S(=O)(=O)Nc2ccc(-c3ccccc3)n(CC(=O)NC(C(=O)C(F)(F)F)C(C)C)c2=O)cc1` (centres undefined), the logP entry in data set [6] was “Not detected”.

Molecule `CC(=O)Nc1ccc(-c2ccccc2)n(CC(=O)NC(C(=O)C(F)(F)F)C(C)C)c1=O` (centres undefined) registered a Cmax in data set [7] of 2.78 µg/mL. In data set [8], this molecule registered a bioavailability of 35%. Moreover, the logP in data set [1] stood at 1.78. In [9], the Tmax is 0.25 h. This molecule also had a half-life in [10] of 1.9 h.

In the case of `CC(C)C(NC(=O)Cn1c(-c2ccccc2)ccc(NS(=O)(=O)Cc2ccccc2)c1=O)C(=O)C(F)(F)F` (centres undefined), in data set [6], the logP result was “Not detected”.

For `CC(C)C(NC(=O)Cn1c(-c2ccccc2)ccc(NS(=O)(=O)NCc2ccccc2)c1=O)C(=O)C(F)(F)F` (centres undefined), the logP in data set [1] came out at 2.57.

`CC(C)C(NC(=O)Cn1c(-c2ccccc2)ccc(N)c1=O)C(=O)C(F)(F)F` (centres undefined): the logP in data set [1] stood at 1.74.

On to `CC(C)C(NC(=O)Cn1c(-c2ccccc2)ccc(NC(=O)OCc2ccncc2)c1=O)C(=O)C(F)(F)F` (centres undefined), for which the values for the Cmax in data set [11] and in [13] were 2.77 µg/mL and 3.15 µg/mL, respectively. For the same molecule, the Tmax turned out to be 1 h in data set [12] and 0.25 h in data set [9]. The molecule also had a lipophilicity (logP) in [1] of 2.41. The values for the half-life in data set [14] and in data set [10] were 0.8 h and 1.3 h, respectively. Moreover, the results for the bioavailability in data set [15] and in data set [16] were roughly 100% and 45%, respectively.

Turning to `CC(C)C(NC(=O)Cn1c(-c2ccccc2)ccc(NS(C)(=O)=O)c1=O)C(=O)C(F)(F)F` (centres undefined), the lipophilicity (logP) in [1] was found to be 1.77.

Molecule `CC(C)C(NC(=O)Cn1c(-c2ccccc2)ccc(NC(=O)NCc2ccc[n+]([O-])c2)c1=O)C(=O)C(F)(F)F` (centres undefined) gave a lipophilicity (logP) in data set [1] of 1.48.

In [1], `CC(C)C(NC(=O)Cn1c(-c2ccccc2)ccc(NC(=O)CN2CCOCC2)c1=O)C(=O)C(F)(F)F` (centres undefined) displayed a lipophilicity (logP) of 2.

In data set [1], `CC(C)C(NC(=O)Cn1c(-c2ccccc2)ccc(NC(=O)NCc2cc[n+]([O-])cc2)c1=O)C(=O)C(F)(F)F` (centres undefined) gave a log partition coefficient (logP) of 1.13.

Take `CC(C)C(NC(=O)Cn1c(-c2ccccc2)ccc(NC(=O)NCc2ccncc2)c1=O)C(=O)C(F)(F)F` (centres undefined): the time to peak (Tmax) in [17] is 3 h. Also, in [18], the bioavailability was determined as 2%. This molecule came in with a logP in [1] of 2.16. For the same molecule, in data set [19], the Cmax was 0.075 µg/mL.

`CC(C)C(NC(=O)Cn1c(-c2ccccc2)ccc(NC(=O)C(F)(F)F)c1=O)C(=O)C(F)(F)F` (centres undefined) had a log partition coefficient (logP) in data set [1] of 3.86.

For the molecule `CC(C)C(NC(=O)Cn1c(-c2ccccc2)ccc(NC(=O)OCc2cccc(C(=O)O)c2)c1=O)C(=O)C(F)(F)F` (centres undefined), the logP result in [6] is recorded as “Not detected”.

As for `Cc1cc(COC(=O)Nc2ccc(-c3ccccc3)n(CC(=O)NC(C(=O)C(F)(F)F)C(C)C)c2=O)cc(C)n1` (centres undefined), the log partition coefficient (logP) in data set [1] came out at 2.38.

In data set [1], `CC(C)C(NC(=O)Cn1c(-c2ccccc2)ccc(NS(N)(=O)=O)c1=O)C(=O)C(F)(F)F` (centres undefined) yielded a lipophilicity (logP) of 1.17.

The molecule `CC(C)C(NC(=O)Cn1c(-c2ccccc2)ccc(NC=O)c1=O)C(=O)C(F)(F)F` (centres undefined) registered a logP in data set [1] of 1.84.

The molecule `CC(C)C(NC(=O)Cn1c(-c2ccccc2)ccc(NC(=O)OCc2ccccn2)c1=O)C(=O)C(F)(F)F` (centres undefined) had a logP in data set [1] of 1.91.
